Laboratory results reported in patent US20160060234A1, “CYSTEINE DERIVATIVE” (AJINOMOTO CO., INC., priority 2010, published 2016).
Counter-ions that a name gives are not always drawn.

Legend:
[1] = Time-course stability test at 70° C. of cis form-trans form mixture (Experimental Example 2); assay type: physicochemical; details: 5 days; for residual ratio (%) at pH 4: 25 mM phosphate buffer pH 4, 70° C.; for residual ratio (%) at pH 4 / residual ratio (%) at pH 5 / residual ratio (%) at pH 6 / residual ratio (%) at pH 7: HPLC area vs day 0; for preservation stability (in words, from Table 1): 25 mM phosphate buffer pH 4-7, 70° C.; for residual ratio (%) at pH 5: 25 mM phosphate buffer pH 5, 70° C.; for residual ratio (%) at pH 6: 25 mM phosphate buffer pH 6, 70° C.; for residual ratio (%) at pH 7: 25 mM phosphate buffer pH 7, 70° C.
Method: A time-course stability test was performed using about 1:1 mixture (20 mg/20 ml) of cis form-trans form of N-Ac-CP2Et obtained in Synthetic Example 7 in a 25 mM phosphate buffer at pH 4, 5, 6, and 7 and 70° C. in the same manner as in Examples Experimental Example 1. The test was performed for 5 days. As an index of a time-course stability test at 70° C., the area value of a target substance 5 days after start of the stability test relative to the area value of the target substance on day 0 after start of the stability test was calculated in % on an HPLC chart and used as a residual ratio.
Detector: ultraviolet absorption spectrophotometer (measurement wavelength; 210 nm) Column: Inertsil ODS-3 (High Pressure type, GL Sciences) (particle size 3 μm, inner diameter 4.6 mm, length 250 mm) eluent: A: 0.05M KH2PO4 (adjusted to pH2 with 85% H3PO4), B: MeOH gradient conditions: 0-5 minute: A=100, −25 minute: A:B=50:50, −35 minute: A:B=50:50, −40 minute: A=100, −45 minute: A=100 flow rate: 0.8 mL/minute column temperature: 30° C. sample concentration: 25-50 mg/dL injection volume: 20 μL retention time (minute): N-Ac-CP2Et (cis form): 31.9, N-Ac-CP2Et (trans form): 33.9

B16 melanoma = test: Eumelanin production suppression test; assay type: cell-based; details: Mus musculus, 72 h, 3 days culture, absorbance of medium at 450 nm, control = 100%, read-out: 50% melanin production suppressing concentration
Method: B16 melanoma was cultured in DMEM (Dulbecco's Modified Eagle Medium) (high glucose, containing 10% serum). Confluent cells were detached with trypsin, and plated on a 96 well plate. After cell adhesion to the plate the next day, the medium was changed to DMEM added with each evaluation sample (control (no sample addition), cysteine derivatives of each Synthetic Example) at a predetermined evaluation concentration (diluted from 10 mM according to sample), and the cells were cultured for 3 days. The 96 well plate was shaken for 5 minutes in a plateshaker, and the absorbance of the medium at 450 nm was measured by a microplatereader. The absorbance after 3 days from the addition of a predetermined concentration of each sample was shown in relative percentage to the measured value (absorbance) of the control (no sample addition) as 100%, and the concentration necessary for suppressing eumelanin production in each sample by 50% was calculated as 50% melanin production suppressing concentration relative to the amount of eumelanin in the control as 100%.
The microplatereader used in this eumelanin production suppression test was Benchmark microplatereader, manufactured by BIORAD.

[2] = Time-course stability test at 70° C. (Experimental Example 1); assay type: physicochemical; details: 25 mM phosphate buffer, pH 4, 5, 6 and 7, 70° C., 4 days, HPLC
Method: A time-course stability test was performed using N-Ac-CP2Et obtained in Synthetic Example 1 and N-Ac-CP obtained in Synthetic Example 13 in a 25 mM phosphate buffer at pH 4, 5, 6, and 7 and 70° C. The test was performed for 4 days. As comparison targets, CP obtained in Reference Example 1, and CP2Et obtained in Reference Example 2 were used. For the time-course stability test, HPLC; (pump) HITACHI L-7100, (Autosampler) HITACHI L-2200, and (detector) HITACHI L-4000 were used.
As an index of a time-course stability test at 70° C., the area value of a target substance after time course changes relative to the area value of the target substance on day 0 after start of the stability test was calculated in % on an HPLC chart and used as a residual ratio.
detector: ultraviolet absorption spectrophotometer (measurement wavelength; 210 nm) column: Inertsil ODS (GL Sciences) (particle size 3 μm, inner diameter 4.6 mm, length 250 mm) eluent: 4 mL/L aqueous phosphoric acid solution:methanol=3:1 (v/v) flow rate: 0.8 mL/minute column temperature: 50° C. sample concentration: 100 mg/dL injection volume: 20 μL retention time (minute): CP: 4.6, 4.8 (diastereomer mixture), N-Ac-CP: 8.0 […]

Compound: CCOC(=O)C1(C)SCC(C(=O)O)N1C(C)=O (centres unmarked) (as salt: salt) [Synthetic Example 1, N-acetyl-2-methylthiazolidine-2,4-dicarboxylic acid 2-ethyl ester]
- melting point: 138 to 141 °C

Compound: CCOC(=O)C1(C)SCC(C(=O)O)N1C(C)=O (stereo not drawn) [N-Ac-CP2Et (cis form), N-acetyl-2-methylthiazolidine-2,4-dicarboxylic acid 2-ethyl ester]
- residual ratio (%) at pH 4 [1]: 69.9%
- preservation stability (in words, from Table 1) [1]: good preservation stability
- residual ratio (%) at pH 5 [1]: 93.5%
- residual ratio (%) at pH 6 [1]: 96.9%
- residual ratio (%) at pH 7 [1]: >99.9%

Compound: CCOC(=O)C1(C)SCC(C(=O)O)N1C(C)=O (stereo not drawn) [N-Ac-CP2Et (trans form), N-acetyl-2-methylthiazolidine-2,4-dicarboxylic acid 2-ethyl ester]
- residual ratio (%) at pH 4 [1]: 95.8%
- preservation stability (in words, from Table 1) [1]: good preservation stability
- residual ratio (%) at pH 5 [1]: 99.8%
- residual ratio (%) at pH 6 [1]: >99.9%
- residual ratio (%) at pH 7 [1]: >99.9%

Compound: CCOC(=O)C1(C)SCC(C(=O)O)N1C(C)=O (centres unmarked) [Synthetic Example 1, N-acetyl-2-methylthiazolidine-2,4-dicarboxylic acid 2-ethyl ester]
- IC50 (B16 melanoma): 4.54 mM
- preservation stability (residual ratio, FIGS. 1 to 4) [2]: preservation stability better than CP and CP2Et

Compound: CC(=O)N1C(C(=O)O)CSC1(C)C(=O)O (centres unmarked) [Synthetic Example 13, N-acetyl-2-methylthiazolidine-2,4-dicarboxylic acid]
- IC50 (B16 melanoma): 5.47 mM
- preservation stability (residual ratio, FIGS. 1 to 4) [2]: preservation stability better than CP and CP2Et

Compound: CCOC(=O)C1CSC(C)(C(=O)OCC)N1C(C)=O (centres unmarked) [Synthetic Example 19, N-acetyl-2-methylthiazolidine-2,4-dicarboxylic acid 2,4-diethyl ester]
- IC50 (B16 melanoma): 2.61 mM

Compound: CCOC(=O)C1(C)SCC(C(=O)OC(C)C)N1C(C)=O (centres unmarked) [Synthetic Example 20, N-acetyl-2-methylthiazolidine-2,4-dicarboxylic acid 2-ethyl 4-isopropyl ester]
- IC50 (B16 melanoma): 1.42 mM
